Test results from patent US20060128721A1, “Novel formulations of opioid-based treatments of pain comprising substituted 1,4-di-piperidin-4-yl-piperazine derivatives” (priority 2003, published 2006).
Read-outs that look alike come from different tables or passages of the source. One block for each molecule: values may come before it.

Key:
[1] = test system: loperamide-induced retching; experiment: Antiemetic effects: loperamide-induced retching in ferrets; assay type: in vivo; conditions: ferrets
Method: The antiemetic effects have been determined using the loperamide-induced retching model (i.e. retching induced by an opioid) in ferrets. To exclude species differences in antiemetic activiey, both compounds have also been tested for antiemetic activity against apomorphine in dogs.
Antagonism of emesis induced by the peripherally selective opioid loperamide (0.31 mg/kg, s.c.) was studied over a 1 h-period starting immediately after the emetic challenge in ferrets pretreated with test compound or solvent. In control animals pre-treated with solvent, loperamide induced pronounced retching (mean±SD: 95±39 counts; n=[…]) and, to a lesser extent, vomiting (5±4).

[2] = molecular target: T1, cloned human h-NK1 receptors expressed in CHO cells (Homo sapiens, UniProt P25103); experiment: Binding experiment for h-NK1 receptors ([3H]-Substance P displacement); conditions: read-out: h-NK1 pIC50 (converted)
T1 construct: expressed in transfected cells; host or cells: CHO cells
T1 sequence (P25103 whole entry): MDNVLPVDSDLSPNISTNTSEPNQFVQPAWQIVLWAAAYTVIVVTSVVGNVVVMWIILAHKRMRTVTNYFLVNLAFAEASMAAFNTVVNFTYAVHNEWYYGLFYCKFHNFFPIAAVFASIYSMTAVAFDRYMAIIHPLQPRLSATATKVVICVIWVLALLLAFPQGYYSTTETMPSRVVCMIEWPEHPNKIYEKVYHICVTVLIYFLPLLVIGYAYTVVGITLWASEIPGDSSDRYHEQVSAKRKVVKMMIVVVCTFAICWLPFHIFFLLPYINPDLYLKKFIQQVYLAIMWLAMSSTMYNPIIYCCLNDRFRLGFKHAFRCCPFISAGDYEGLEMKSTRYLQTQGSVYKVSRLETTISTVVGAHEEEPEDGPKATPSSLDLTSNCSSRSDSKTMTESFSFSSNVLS

[3] = molecular target: T2, cloned human h-NK3 receptors expressed in CHO cells (Homo sapiens, UniProt P29371); experiment: Binding experiment for h-NK3 receptors ([3H]-SR-142801 displacement); conditions: [3H]-SR-142801, CHO cells; read-out: h-NK3 pIC50 (converted)
T2 construct: expressed in transfected cells; host or cells: CHO cells
T2 sequence (P29371 1-465): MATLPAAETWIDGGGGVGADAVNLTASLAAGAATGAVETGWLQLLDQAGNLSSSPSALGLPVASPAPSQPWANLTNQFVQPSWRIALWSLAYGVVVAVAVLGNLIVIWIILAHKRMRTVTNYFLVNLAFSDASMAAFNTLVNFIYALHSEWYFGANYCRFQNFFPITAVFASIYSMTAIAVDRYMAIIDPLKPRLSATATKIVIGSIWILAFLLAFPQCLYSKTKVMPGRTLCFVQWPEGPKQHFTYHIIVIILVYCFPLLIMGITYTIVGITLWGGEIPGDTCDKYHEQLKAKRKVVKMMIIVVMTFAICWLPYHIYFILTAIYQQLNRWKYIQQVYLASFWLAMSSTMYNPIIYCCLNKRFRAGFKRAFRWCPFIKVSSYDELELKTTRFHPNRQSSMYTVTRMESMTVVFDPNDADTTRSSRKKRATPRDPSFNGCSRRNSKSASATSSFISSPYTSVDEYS
Method: The compounds according to the invention were investigated for interaction with various neurotransmitter receptors, ion channels and transporter binding sites using the radioligand binding technique. Membranes from tissue homogenates or from cells, expressing the receptor or transporter of interests, were incubated with a radioactively labelled substance ([^3H]- or [^125I] ligand) to label a particular receptor. […] Following incubation, labelled membranes were harvested and rinsed with excessive cold buffer to remove non-bound radioactivity by rapid filtration under suction. Membrane bound radioactivity was counted in a scintillation counter and results were expressed in counts per minute (cpm).
The compounds were dissolved in DMSO and tested at 10 concentrations ranging from 10^−10 to 10^−5 M.
The ability of the compounds according to the invention to displace [^3H]-Substance P from cloned human h-NK1 receptors expressed in CHO cells, to displace [^3H]-SR-48968 from cloned human h-NK2 receptors expressed in Sf9 cells, and to displace [^3H]-SR-142801 from cloned human h-NK3 receptors expressed in CHO cells was evaluated.

[4] = molecular target: T3, cloned human h-NK2 receptors expressed in Sf9 cells (Homo sapiens, UniProt P21452); experiment: Binding experiment for h-NK2 receptors ([3H]-SR-48968 displacement); conditions: [3H]-SR-48968, Sf9 cells; read-out: h-NK2 pIC50 (converted)
T3 construct: expressed in transfected cells; host or cells: Sf9 cells
T3 sequence (P21452 1-398): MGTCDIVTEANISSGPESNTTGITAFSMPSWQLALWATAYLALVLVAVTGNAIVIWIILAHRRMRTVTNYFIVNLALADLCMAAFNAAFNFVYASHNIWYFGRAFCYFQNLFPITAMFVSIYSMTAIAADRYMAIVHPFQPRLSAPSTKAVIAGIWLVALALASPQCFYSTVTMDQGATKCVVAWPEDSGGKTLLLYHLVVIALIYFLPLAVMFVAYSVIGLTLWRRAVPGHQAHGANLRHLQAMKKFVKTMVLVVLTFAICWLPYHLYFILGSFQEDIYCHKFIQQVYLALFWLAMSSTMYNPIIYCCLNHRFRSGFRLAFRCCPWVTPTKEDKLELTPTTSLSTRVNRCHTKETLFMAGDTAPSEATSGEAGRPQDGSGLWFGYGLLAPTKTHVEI

IC50 [2]: 1.26 nM | IC50 [3]: 251 nM | IC50 [4]: 501 nM
Compound: O=C(c1ccccc1)N1CCC(N2CCN(C3CCN(C(=O)c4cc(C(F)(F)F)cc(C(F)(F)F)c4)C(Cc4ccccc4)C3)CC2)CC1 (stereo not drawn) [Compound 3, {4-[4-(1-benzoyl-piperidin-4-yl)-piperazin-1-yl]-2-benzyl-piperidin-1-yl}-(3,5-bis-trifluoromethyl-phenyl)-methanone]
ratio of oral ED50 (at time of peak effect) over subcutaneous ED50 (obtained at 1 h) [1]: 1.4-1.8 | ED50 ([1]; blockade (=0 retches), intravenous route, 1 h after administration, read-out: ED50 for blockade of loperamide-induced retching): 0.88 mg/kg | ED50 ([1]; blockade (=0 retches), oral route, 1 h after administration, read-out: ED50 for blockade of loperamide-induced retching): 1.65 mg/kg | ED50 ([1]; blockade (=0 retches), oral route, 2 h after administration, read-out: ED50 for blockade of loperamide-induced retching): 2.18 mg/kg | ED50 ([1]; blockade (=0 retches), oral route, 4 h after administration, read-out: ED50 for blockade of loperamide-induced retching): 1.25 mg/kg | ED50 ([1]; blockade (=0 retches), oral route, 8 h after administration, read-out: ED50 for blockade of loperamide-induced retching): 2.89 mg/kg | ED50 ([1]; blockade (=0 retches), oral route, 16 h after administration, read-out: ED50 for blockade of loperamide-induced retching): 2.89 mg/kg | ED50 ([1]; blockade (=0 retches), oral route, 32 h after administration, read-out: ED50 for blockade of loperamide-induced retching): 5 mg/kg | ED50 ([1]; blockade (=0 retches), oral route, 64 h after administration, read-out: ED50 for blockade of loperamide-induced retching): > 10 mg/kg | ED50 ([1]; inhibition (<20 retches), intravenous route, 1 h after administration, read-out: ED50 for inhibition of loperamide-induced retching): 0.39 mg/kg | ED50 ([1]; inhibition (<20 retches), oral route, 1 h after administration, read-out: ED50 for inhibition of loperamide-induced retching): 0.72 mg/kg | ED50 ([1]; inhibition (<20 retches), oral route, 2 h after administration, read-out: ED50 for inhibition of loperamide-induced retching): 0.96 mg/kg | ED50 ([1]; inhibition (<20 retches), oral route, 4 h after administration, read-out: ED50 for inhibition of loperamide-induced retching): 1.25 mg/kg | ED50 ([1]; inhibition (<20 retches), oral route, 8 h after administration, read-out: ED50 for inhibition of loperamide-induced retching): 1.25 mg/kg | ED50 ([1]; inhibition (<20 retches), oral route, 16 h after administration, read-out: ED50 for inhibition of loperamide-induced retching): 1.26 mg/kg | ED50 ([1]; inhibition (<20 retches), oral route, 32 h after administration, read-out: ED50 for inhibition of loperamide-induced retching): 3.81 mg/kg | ED50 ([1]; inhibition (<20 retches), oral route, 64 h after administration, read-out: ED50 for inhibition of loperamide-induced retching): > 10 mg/kg | ED50 ([1]; oral administration, time of peak effect, read-out: graphically estimated peak-effect ED50 for blockade of retching (=0 retches)): 1.4 mg/kg | duration of action ([1]; oral, at 4 times the peak-effect dose): 32 h | Ratio p.o./s.c. of ED50 for blockade of retching ([1]; p.o. (−2 h) over s.c. (−1 h)): 2.3 | ED50 ([1]; iv, read-out: ED50 for blockade of retching 1 h after i.v. injection, i.v., 1 h): 0.88 mg/kg | ED50 ([1]; iv, read-out: ED50 for inhibition of retching 1 h after i.v. injection, i.v., 1 h): 0.39 mg/kg | ED50 ([1]; read-out: ED50 (95% confidence limits) for blockade of loperamide-induced retching, p.o. route (−2 h), loperamide 0.31 mg/kg s.c., 2 h after oral administration, blockade = 0 retches): 2.18 mg/kg | ED50 ([1]; read-out: graphically estimated peak-effect ED50 for inhibition of retching (<20 retches), oral administration, time of peak effect): 1 mg/kg | ED50 ([1]; sc, read-out: ED50 for blockade of loperamide-induced retching, loperamide 0.31 mg/kg s.c., 1 h after subcutaneous administration, blockade = 0 retches): 0.96 mg/kg | ED50 ([1]; sc, blockade (=0 retches), subcutaneous route, 1 h after administration, read-out: ED50 for blockade of loperamide-induced retching): 0.96 mg/kg | ED50 ([1]; sc, inhibition (<20 retches), subcutaneous route, 1 h after administration, read-out: ED50 for inhibition of loperamide-induced retching): 0.55 mg/kg | ED50 ([1]; sc, s.c., 1 h, <20 retches, read-out: ED50 for inhibition of retching one hour after s.c. injection): 0.55 mg/kg | ED50 ([1]; sc, s.c., 1 h, =0 retches, read-out: ED50 for complete blockade of retching one hour after s.c. injection): 0.96 mg/kg

melting point: 135 °C | IC50 [2]: 7.94 nM | IC50 [3]: 1000 nM | IC50 [4]: 1000 nM
Compound: O=C(c1cc(C(F)(F)F)cc(C(F)(F)F)c1)N1CCC(N2CCN(C3CCN(Cc4nc5ccccc5[nH]4)CC3)CC2)CC1Cc1ccccc1 (stereo not drawn) [Compound 7]
